Test results taken from patent publication US4256883A, “Pyridoza prostacyclin analogues and N-oxides thereof” (Research Corporation, priority 1979, dated 1981).
Entries after “also recorded” stand apart in the source; their conditions may differ. Like-named read-outs stand apart in the source and are kept apart here.

Experiments:
[1] = tested on: blood platelet aggregation; settings: background statement, cited from earlier work
[2] = background; Bundy, Tetrahedron Letters, 1371 (1978); cited from earlier work
[3] = tested on: human and rabbit citrated platelet-rich plasma; experiment: Effects on platelet aggregation (citrated platelet-rich plasma, chronolog aggregometer, 37°); assay type: cell-based; settings: for Biological Activity: Platelet Aggregation (in words): inhibition of aggregation induced by 2 uM ADP, human and rabbit platelet-rich plasma, 37°
Description: Effects of prostacyclin analogs on platelet aggregation were evaluated using human and rabbit citrated platelet-rich plasma in a chronolog aggregometer at 37°.

[4] = tested on: isolated perfused cat coronary arteries; experiment: Effects on isolated perfused cat coronary arteries (perfusion pressure); settings: for Biological Activity: Cat Coronary Artery (in words): isolated perfused right coronary artery, 37° C., Krebs-Henseleit
Description: Effects of prostacyclin analogs on isolated perfused cat coronary arteries were measured as follows.
Cats of either sex (2.5-3.5 kg) were anesthetized with sodium pentobarbital (30 mg/kg) given intravenously. […] A 20-gauge stainless steel cannula was inserted into the right coronary artery via the coronary ostium. Distal to the cannula, approximately 1 cm of coronary artery was dissected free of surrounding tissue. The section of right coronary artery with the cannula in place was excised from the heart and immediately transferred to a constant flow perfusion apparatus.
The perfusion apparatus consists of a reservoir containing 20 ml of warm (37° C.) oxygenated (95% O2 +5% CO2) K-H solution which bathes the coronary artery and serves as recirculating perfusate. An increase in perfusion pressure indicates vasoconstriction, whereas a decrease in perfusion pressure signifies vasodilation. Following an initial 1 hr. equilibrium period, vascular responsiveness was established by adding 25 mM KCl. After washing with fresh K-H solution for 20-30 mins., the preparation achieved a relatively constant low basal tone. […] Fresh K-H dilutions of stock prostacyclin analog concentrations were added to the perfusate reservoir in 0.1-0.2 ml volumes.

blood vessels / arteries = settings: background statement; cited from earlier work
[5] = tested on: blood platelets and arteries; settings: prior-art analogues, comparison by inventors; cited from earlier work
[6] = Stability of free acid XXIV in aqueous solutions at 25° C.; assay type: physicochemical
Description: Free acid XXIV was stable in aqueous solutions at 25° C. for at least 30 days.

[7] = number in parentheses, not explained, natural prostacyclin = 1

Compound: CCCCC[C@H](O)/C=C/[C@@H]1[C@H]2CC(CCCCC(=O)O)=N[C@H]2C[C@H]1O [IV]
- effect on blood platelet aggregation (in words) [1]: potency in inhibiting platelet aggregation
- stability (in words) [2]: high stability

Compound: CCCCC[C@H](O)/C=C/[C@@H]1[C@H]2C/C(=C/CCCC(=O)O)O[C@H]2C[C@H]1O [Natural prostacyclin, 6,9α-oxido-11α,15α-dihydroxyprosta (Z)5, E(13)-dienoic acid]
- Biological Activity: Platelet Aggregation (in words) [3]: Inhibitor (Potent)
- Biological Activity: Cat Coronary Artery (in words) [4]: Dilator (Potent)
- effect on blood platelet aggregation (in words) ([1]; listed as Prostacyclin): most potent inhibitor of blood platelet aggregation of all the prostaglandins discovered to date
- effect on blood platelet aggregation (in words) ([1]; listed as prostacyclin): destroys platelet aggregates after they have formed
- effect on blood vessels / arteries (in words) (blood vessels / arteries): powerful action as a dilator of blood vessels
- half-life (t1/2 in saline at 25°): 0.0333 h

Compound: CCCCC[C@H](O)/C=C/[C@@H]1[C@H]2CCC(CCCC(=O)O)=N[C@H]2C[C@H]1O [V]
- effect on blood platelet aggregation (in words) [1]: potency in inhibiting platelet aggregation
- stability (in words) [2]: high stability

Compound: CCCCC[C@H](O)/C=C/[C@@H]1[C@H]2CC(/C=C/CCC(=O)O)O[C@H]2C[C@H]1O (stereo partly shown) [VII, (4E)--isoprostacyclin]
- biological activity relative to prostacyclin (in words) [5]: somewhat less, active; also recorded: less biological activity

Compound: 7,8-dihydro-6,9-pyridaza prostacyclin [XXIII]
- Biological Activity: Platelet Aggregation (in words) [3]: Inhibitor (Potent)
- Biological Activity: Platelet Aggregation, number in parentheses [3, 7]: 0.1
- Biological Activity: Cat Coronary Artery (in words) [4]: Dilator (Potent)
- Biological Activity: Cat Coronary Artery, number in parentheses [4, 7]: 0.1

Compound: 6, 9-pyridaza prostacyclin, N-oxides [N-oxides XXV]
- Biological Activity: Platelet Aggregation (in words) [3]: Small effect
- Biological Activity: Cat Coronary Artery (in words) [4]: Small effect
- t1/2 Saline (25°): > 24 h

Compound: CCCCC[C@H](O)/C=C/[C@@H]1c2cc(CCCCC(=O)O)nnc2C[C@H]1O [XXIV, 6,9-pyridaza prostacyclin, free acid]
- Stability in aqueous solutions (stable for at least) [6]: at least 30 days
- Biological Activity: Platelet Aggregation (in words) [3]: Inhibitor (Potent)
- Biological Activity: Cat Coronary Artery (in words) [4]: Dilator (Potent)
- half-life (t1/2 in saline at 25°): > 24 h

Compound: CCCCC[C@H](O)/C=C/[C@@H]1[C@H]2CC(CCCCC(=O)O)O[C@H]2C[C@H]1O (stereo partly shown) [VI, dihydroprostacyclin]
- biological activity relative to prostacyclin (in words) [5]: somewhat less, active; also recorded: less biological activity

Compound: CCCCC[C@H](O)/C=C/[C@H]1O[C@H]2C[C@H](O2)[C@@H]1C/C=C\CCCC(=O)O [Thromboxane A2]
- effect on blood platelet aggregation (in words) [1]: causes platelet aggregation
- effect on blood vessels / arteries (in words) (blood vessels / arteries): powerful constrictor of arteries
